Assays:
[1] = biological target: NLRP3 inflammasome (Homo sapiens, UniProt Q96P20); conditions: cited from earlier work
[2] = tested on: MRSA; assay: Photoinactivation of planktonic cultures by menadione + antimicrobial blue light; type: cell-based, methicillin-resistant Staphylococcus aureus; conditions: menadione ⅛ MIC + aBL 90 J/cm^2 (50 mW/cm^2), 405 nm
Procedure: The bacterial cells were grown in BHI broth medium shaken overnight. Cells were collected by centrifugation at 4,000 rpm for 5 minutes and suspended in PBS at a density of 10^8 colony-forming units (CFU)/mL (estimated by measuring the optical density at 600 nm; O.D 0.1=10^8 cells/mL). The microbial suspension in PBS was transferred to a 35×12-mm dish and mixed with different concentrations of menadione: 0, 0.5, 1 and 2 μg/mL for MRSA USA300, AF003 and IQ0064; 0, 1, 10 and 30 μg/mL for P. aeruginosa PA01; and 0, 16, 32, 64 and 128 μg/mL for E. coli ATCC 25922. After incubation in the dark at 25° C. for 1 hour, the planktonic suspension of cells at room temperature was irradiated using aBL (405 nm) at 50 mW/cm^2 with different radiant exposures (0-250 J/cm^2). During the aBL irradiation, 40 μL of samples were withdrawn every 15 minutes, and the CFUs were determined by 10-fold serial dilutions in PBS (10-1 to 10-7 dilution factors), plated on BHI agar plates as described previously [Ref. 17]. CFUs were counted after overnight incubation at 37° C. Experiments were performed in triplicate.

[3] = tested on: MRSA; assay: Hydroxyl radical assay (HPF) in bacteria; type: cell-based, methicillin-resistant Staphylococcus aureus; conditions: 10 μg/mL menadione, 135 J/cm^2
Procedure: 1.2.9.3 Hydroxyl radical HO′ assay: The hydroxyl radical was measured by 3′-(p-hydroxyphenyl) fluorescein (HPF) (Thermofisher). HPF is a new fluorescein derivative, and it is nonfluorescent until reacted with the hydroxyl radical or peroxynitrite anion. The MRSA were grown in BHI broth medium with shaking overnight. Cells were collected by centrifugation at 4,000 rpm for 5 minutes and resuspended in PBS in the stationary growth phase culture of 1×10^8 CFU/mL. The microbial suspension was transferred to a 35×12-mm dish, mixed with 10 μg/mL of menadione, and stained with 10 μM HPF solution per the manufacturer's instruction. The bacteria were irradiated with the blue light at 50 mW/cm^2 and the samples were collected each 15 minutes to be analyzed by Microplate Spectrofluorometer (SPECTRAmax®, Molecular Devices, USA) at λex=490 nm and λem=515 nm. The control and the menadione/dark groups were generated under the same conditions without irradiation.

[4] = tested on: MRSA biofilms in ex-vivo porcine skin; assay: Photoinactivation of biofilms in ex vivo porcine partial thickness wounds by menadione + aBL; type: cell-based, methicillin-resistant Staphylococcus aureus
Procedure: Skin was handled and sanitized with 70% isopropanol solution after hair shaving. The explants and inner wounds were created using a 12 mm and 4 mm biopsy punches respectively. The explants were placed in 12 wells plates using a (8 μm pore) inserts (Corning™ Falcon™). 1 mL of DMEM media was added to each well in the plate before the insert. After 24 hours, the inner wounds in the explants were inoculated with 20 μL of 10^8 CFU/mL of bacterial solution. After that, the explants were incubated at 37° C. and 5% CO2 for 48 hours to ensure the growth of a mature bacterial biofilm. The inner wounds of the explants were replenished daily with fresh BHI media to ensure that the wounds are hydrated.
48 hours following the inoculation, mature monobacterial biofilms of MRSA, P. aeruginosa, and E. coli were obtained with 8.00 log10 CFU/g per wound bed on each explant. MRSA biofilms in explant were reduced by 0.81 log10 CFU/g after the treatment of just aBL 250 J/cm^2 (50 mW/cm^2). However, MRSA biofilms in ex-vivo porcine skin were reduced by up to 4.18 log10 CFU/g when treated with aBL combined with menadione (200 μg/mL). For MRSA biofilms, the log reduction of mature monobacterial biofilm increased as the menadione concentration increased (see FIGS. 16A-16B). […]

[5] = UV-Vis absorption spectroscopy of menadione; type: physicochemical
Procedure: Stock solutions of menadione (10 mg/mL) were prepared in DMSO only and in DMSO/Tween (1:1) to improve the solubility. Different concentrations of menadione were prepared to make a calibration curve by diluting the stock solution in PBS so that the final solution was either 1% DMSO or 1% DMSO/Tween. The absorbance spectra were measured using an Evolution™ 300 UV-Vis Spectrophotometer (Thermo Scientific, Waltham, Massachusetts, USA). The calibration curve was measured, and molar absorption coefficient calculated.
Thus, we dissolved the menadione in two conditions: in PBS containing either 1% DMSO or 1% DMSO/Tween80 at 400 μM. Tween 80 is a surfactant and the idea is to mix with the DMSO before to add to PBS is due to necessity to improve the solubility of menadione in aqueous solution. We measured the absorption spectrum in both conditions to analyze if there is any change in optical properties. The range of wavelength absorption of menadione was measured between 200-800 nm (see FIG. 12B) to choose the optimum wavelength of the light absorption spectra. […] The maximum wavelength of absorption found was 340 nm for both conditions. […] The molar absorptivity coefficient was compared in different wavelength according with the Table 1.

Sequence of NLRP3 inflammasome (Q96P20 whole entry): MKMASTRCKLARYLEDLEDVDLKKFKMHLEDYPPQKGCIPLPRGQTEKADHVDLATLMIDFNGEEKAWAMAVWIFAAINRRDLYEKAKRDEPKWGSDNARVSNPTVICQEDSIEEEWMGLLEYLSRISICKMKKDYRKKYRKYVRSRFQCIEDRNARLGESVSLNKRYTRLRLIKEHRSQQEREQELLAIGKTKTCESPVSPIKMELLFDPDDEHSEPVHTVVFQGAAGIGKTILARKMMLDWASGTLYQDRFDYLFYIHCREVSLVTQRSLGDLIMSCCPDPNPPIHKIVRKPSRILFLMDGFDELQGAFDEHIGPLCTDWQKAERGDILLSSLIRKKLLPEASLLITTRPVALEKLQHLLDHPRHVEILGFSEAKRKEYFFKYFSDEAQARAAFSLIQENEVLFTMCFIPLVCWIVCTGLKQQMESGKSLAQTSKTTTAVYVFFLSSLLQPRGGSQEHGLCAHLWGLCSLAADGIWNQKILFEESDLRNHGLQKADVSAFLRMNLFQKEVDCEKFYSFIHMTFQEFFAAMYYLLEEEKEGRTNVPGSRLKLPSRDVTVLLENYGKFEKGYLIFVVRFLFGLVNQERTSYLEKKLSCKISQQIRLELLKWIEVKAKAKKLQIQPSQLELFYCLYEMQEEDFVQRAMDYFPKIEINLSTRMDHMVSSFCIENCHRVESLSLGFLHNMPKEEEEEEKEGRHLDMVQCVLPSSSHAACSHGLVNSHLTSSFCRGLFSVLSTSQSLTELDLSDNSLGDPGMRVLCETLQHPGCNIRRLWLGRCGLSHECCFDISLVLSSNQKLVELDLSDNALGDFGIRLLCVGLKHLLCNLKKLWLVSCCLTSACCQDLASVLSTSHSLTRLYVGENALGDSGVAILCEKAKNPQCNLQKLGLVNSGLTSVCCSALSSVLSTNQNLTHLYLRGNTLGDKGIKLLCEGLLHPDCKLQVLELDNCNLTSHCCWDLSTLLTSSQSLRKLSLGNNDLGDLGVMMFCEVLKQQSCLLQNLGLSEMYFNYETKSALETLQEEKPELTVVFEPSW

## CC1=CC(=O)c2ccccc2C1=O [menadione, 2-methyl-1,4-naphthoquinone]
[1]
  inhibition of NLRP3 inflammasome: selective, potent inhibitor
[2]
  eradication by aBL combined with menadione: 4.59 log10 CFU/mL
[3]
  hydroxyl radical (HPF), menadione+aBL vs aBL alone: 1.77 times
[4]; ex vivo porcine explants, no aBL
  biofilm reduction by menadione in the absence of aBL: no effect of biofilm reduction
[4]; ex vivo porcine wound, menadione 200 μg/mL + aBL 250 J/cm^2 (50 mW/cm^2)
  biofilm reduction by aBL combined with menadione: up to 4.18 log10 CFU/g
[5]; 400 μM in PBS with 1% DMSO or 1% DMSO/Tween80, both conditions
  maximum wavelength of absorption: 340 nm
[5]; 1% DMSO in PBS
  ε, molar absorptivity coefficient, λ = 340 nm: 2458 L/mol/cm
  ε, molar absorptivity coefficient, λ = 380 nm: 572.1 L/mol/cm
  ε, molar absorptivity coefficient, λ = 405 nm: 128.82 L/mol/cm
[5]; 1% DMSO/Tween in PBS
  ε, molar absorptivity coefficient, λ = 340 nm: 2064 L/mol/cm
  ε, molar absorptivity coefficient, λ = 380 nm: 410.31 L/mol/cm
  ε, molar absorptivity coefficient, λ = 405 nm: 113.85 L/mol/cm

Source: patent publication US20240416143A1, “PHOTONIC ANTIMICROBIAL WOUND SURFACE DRESSING” (The General Hospital Corporation, priority 2021, published 2024)
